The values below come from patent US6455570B1, “Polypyrrolinone based inhibitors of matrix metalloproteases” (The Trustees of the University of Pennsylvania, priority 2000, dated 2002).

Format in all cases: biochemical
One assay deals with T1, gelatinase (MMP-2) (Homo sapiens, UniProt P08253).
T1 sequence (P08253 110-660): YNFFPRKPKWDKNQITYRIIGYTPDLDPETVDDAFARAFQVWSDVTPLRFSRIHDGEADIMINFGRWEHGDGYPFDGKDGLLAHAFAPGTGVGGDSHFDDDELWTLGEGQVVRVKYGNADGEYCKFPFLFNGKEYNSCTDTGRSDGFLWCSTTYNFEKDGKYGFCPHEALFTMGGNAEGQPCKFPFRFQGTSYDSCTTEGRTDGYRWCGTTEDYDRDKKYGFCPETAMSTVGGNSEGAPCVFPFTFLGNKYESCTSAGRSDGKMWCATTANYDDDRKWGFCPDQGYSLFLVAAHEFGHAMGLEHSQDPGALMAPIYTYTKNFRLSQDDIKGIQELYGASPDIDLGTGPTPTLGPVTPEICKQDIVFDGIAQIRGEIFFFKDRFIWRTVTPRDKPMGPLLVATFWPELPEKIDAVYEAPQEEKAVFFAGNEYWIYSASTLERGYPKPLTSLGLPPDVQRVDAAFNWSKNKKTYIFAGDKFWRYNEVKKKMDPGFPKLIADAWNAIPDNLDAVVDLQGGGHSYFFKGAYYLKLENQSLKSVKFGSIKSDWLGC
Briefly: metalloprotease activity assay by a published procedure (J. Duan, WO/0059285), gelatinase. To be noted: read-out: Ki, inhibitory activity against gelatinase (MMP-2). How it is done:
(§1) Compounds of the present invention were assayed for metalloprotease activity by a published procedure (see, for example, J. Duan, WO/0059285). […] (Whittaker, M. et al. Chem. Rev. 1999 99:2735; Borkakoti, N. et al. Struct. Biol. 1994 1:106)

For assay [1], the target named is membrane type 2 matrix metalloprotease (MMP-15) (Homo sapiens, UniProt P51511). Briefly: metalloprotease activity assay by a published procedure (J. Duan, WO/0059285), membrane type 2 MMP. To be noted: read-out: Ki, inhibitory activity against membrane type 2 matrix metalloprotease (MMP-15). As for the experimental part: as §1
membrane type 2 matrix metalloprotease (MMP-15), sequence (P51511 132-669, species assumed): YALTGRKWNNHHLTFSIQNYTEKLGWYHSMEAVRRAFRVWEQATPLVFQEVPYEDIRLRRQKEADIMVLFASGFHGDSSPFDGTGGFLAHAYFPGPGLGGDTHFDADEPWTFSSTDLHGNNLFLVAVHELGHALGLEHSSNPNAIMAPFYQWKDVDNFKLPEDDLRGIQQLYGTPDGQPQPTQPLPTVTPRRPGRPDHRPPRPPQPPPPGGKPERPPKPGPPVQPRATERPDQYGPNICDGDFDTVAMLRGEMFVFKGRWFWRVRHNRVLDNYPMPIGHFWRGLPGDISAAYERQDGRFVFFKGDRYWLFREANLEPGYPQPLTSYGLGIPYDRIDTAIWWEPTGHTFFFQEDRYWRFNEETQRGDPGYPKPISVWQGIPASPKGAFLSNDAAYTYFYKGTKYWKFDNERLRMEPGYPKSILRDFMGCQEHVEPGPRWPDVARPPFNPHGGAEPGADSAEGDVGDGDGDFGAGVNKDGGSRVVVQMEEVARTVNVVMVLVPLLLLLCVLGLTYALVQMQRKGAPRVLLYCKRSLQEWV
The next assay deals with T2, matrilysin (MMP-7) (Homo sapiens, UniProt P09237).
T2 sequence (P09237 95-267): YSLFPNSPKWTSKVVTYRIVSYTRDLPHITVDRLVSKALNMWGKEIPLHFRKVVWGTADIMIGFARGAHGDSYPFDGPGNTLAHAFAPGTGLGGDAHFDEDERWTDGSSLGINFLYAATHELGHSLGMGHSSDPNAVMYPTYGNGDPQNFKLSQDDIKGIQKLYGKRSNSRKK
Briefly: metalloprotease activity assay by a published procedure (J. Duan, WO/0059285), matrilysin. To be noted: read-out: Ki, inhibitory activity against matrilysin (MMP-7). As for the experimental part: as §1

Consider `CCOC(=O)C(C)C1=CNC(CC(C)C)(C2=CNC(CC(=O)NO)(CC(C)C)C2=O)C1=O` (single isomer, unassigned; (-)) [(−)-1a, Bispyrrolinone Hydroxamic Acid], for which the inhibition constant Ki at gelatinase (MMP-2) worked out at 2.9 µM; in assay [1], 6.8 µM; on matrilysin (MMP-7), 6.4 µM.
